Assays:
[1] = Aerodynamic particle size distribution by Andersen Cascade Impactor (ACI); format: physicochemical; settings: Samples I-V, flow rate 28.3 L/min
Description: An Andersen Cascade Impactor instrument (ACI) was used to determine the particle size distribution of Samples I-V. The test was conducted at a flow rate of 28.3 L/min. Deposition of the active substance on each ACI plate was confirmed by high pressure liquid chromatography. The particle size was expressed in terms of mass median aerodynamic diameter (MMAD) and Geometric Standard Deviation (GSD).

[2] = Aerodynamic particle size distribution of Sample VI by Next Generation Impactor (NGI), soft mist inhaler; format: physicochemical; settings: NGI 30 L/minute, RH 90±2%
Description: The aerodynamic particle size distribution was determined using a Next Generation Impactor instrument (NGI). The soft mist inhaler was held close to the NGI inlet until no aerosol was visible. The flow rate of the NGI was set to 30 L/minute and was operated under ambient temperature and a relative humidity (RH) of 90±2%.
Sample VI was discharged into the NGI. Fractions of the dose were deposited at different stages of the NGI, in accordance with the particle size of the fraction. Each fraction was washed from the stage and analyzed using HPLC.
The particle size distribution was expressed in terms of mass median aerodynamic diameter (MMAD) and geometric standard deviation (GSD).

In the case of “(3RS)-3-[(2 SR)-(2-cyclopentyl-2-hydroxy-2-penylacetyl)oxy]-1,1-dimethlypyrrolidinium bromide [Glycopyrronium bromide]”, the GSD [1] is reported as 1.7, the MMAD [1] is reported as 4.4 μm and the “Fine Particle Fraction (FPF)” value [2] is reported as 70.45%. The “Fine particle dose (FPD)” value [2] was 8.44 µg, the GSD [2] was “less than 2” and the MMAD [2] was “less than 6 μm”. It also gave a GSD ([2]; listed as Glycopyrrolate) of 1.77 and an MMAD ([2]; listed as Glycopyrrolate) of 4.05 μm.
